Experimental data published in article PMC8945229, “Development and Biological Characterization of a Novel Selective TrkA Agonist with Neuroprotective Properties against Amyloid Toxicity” (Biomedicines, 2022).
pIC50: −log10 of the molar value.

What was measured:
Format in all cases: cell-based
[1] = system: γ-secretase; assay: γ-secretase activity / APP processing in U2OS APP-C99-tGFP cells; details: 6 h
Protocol: PC12 and HEK293T cells were obtained from LGC Promochem GmbH (Teddington, UK) and cultured under the conditions specified by the manufacturer. NIH3T3 cells were stably transfected with human TrkB plasmid. PC12 cells were grown in DMEM medium (11965084, Gibco, Grand Island, NY, USA) containing 10% Horse Serum (16050122, Gibco, Grand Island, NY, USA), 5% Fetal Bovine Serum (10270106, Gibco, Grand Island, NY, USA), 100 units/mL Penicillin and 0.1 mg/mL Streptomycin (15140122, Gibco, Grand Island, NY, USA) at 5% CO2 and 37 °C. Cells were used between passages 5–20. HEK293T and NIH3T3 cells were grown in the same medium as PC12 cells supplemented with 10% Fetal Bovine Serum and lacking Horse Serum. For transient transfection of HEK293T cells, lipofectamine was used and cells were transfected with human p75^NTR and Traf6 plasmids. To determine the intracellular activity of endogenous secretases, we tagged (tGFP) a truncated mutant (Tm) of APP containing the original amino acids sequence from M516 to N773. This Tm conserves the secretases cleavage sites, clathrin binding site, tau protein binding site, collagen binding site and some glycosylation sites critical for protein localization and intracellular trafficking. The cDNA of the TmAPP gene was amplified by PCR and subcloned into pturbo-GFP vector. The construction was transfected into U2OS cells (ATCC Cat Number HTB-96) using Lipofectamine LTX (Thermo Fisher Scientific, Waltham, MA, USA). After 48 h, individual cells were plated in MTP96 plates using F.SIGHT (CYTENA GmbH, Freiburg, Germany), and cultured in complete medium containing 250 μg/mL G418 for selection. The selection medium was changed every two to three days. The cells were allowed to grow for 3 to 4 weeks, after which clones were isolated for further analysis. Resistant clones were checked by RT-PCR and epifluorescence microscopy.
The Alzheimer’s Disease (AD) phenotype is partly attributed to the toxic effects caused by oligmeric Aβ, which results in reduced neuronal trophic support, caused by deregulation of neurotrophic signaling. It is therefore reasonable that a small molecule that can selectively activate TrkA signaling and promote neuronal survival could alleviate the detrimental effects caused by toxic Aβ oligomers, especially during the early phases of the disease or modulate APP misprocessing and therefore reduce the production of the toxic Aβ. The U2OS stably expressing APP-C99-tGFP cell line was used in order to monitor γ-secretase activity, the process responsible for Aβ production from APP. The assay achieves this by measuring the levels of fluorescent APP-C99 construct produced by β-secretase activity. When γ-secretase is active, the construct is cleaved, leading to Aβ production. […] Therefore, higher fluorescence levels correspond to decreased γ-secretase activity and Aβ aggregate formation by extension. […] In addition, in order to investigate whether ENT-A013 can protect cells against Aβ-induced toxicity we isolated neurons from the hippocampus of E17.5 mouse embryos, a brain area that is heavily affected in AD. Neurons were left in culture for 16–18 DIV and then were treated with oligomeric Aβ and ENT-A013 for 48 h. Subsequently, cells were fixed and cell death was assessed using TUNEL assay.
(A,B) Primary hippocampal neurons were treated for 48 h with oligomeric Aβ in the presence of ENT-A013 and TUNEL assay was used to quantify cell death. Representative images from 3 independent experiments. Data are shown as ±SEM. One-way ANOVA, Tukey’s Test correction: ** p < 0.01; *** p < 0.001. (C) Aggregate formation on untreated cells, treated with DAPT inhibitor of γ-secretase or with compound ENT-A013. […] Aggregate formation was quantified with a BD Pathway 855 High-Content Bioimager and Attonvision software.

[2] = system: NIH-3T3-TrkB cells; assay: CellTox assay in serum-starved NIH-3T3-TrkB cells; details: 24hrs
Protocol: (§1) treated with ENT-A013 (500nM) or Neurotrophin-3 (100ng/ml) for 30’ and then subjected to Western Blot against phosphorylated TrkC, Akt and Erk1/2. […]
(§2) phosphorylated any of those. (D) CellTox assay was performed in NIH-3T3-TrkB cells that were starved from serum and treated with ENT-A013 or BDNF for 24hrs. Quantification (E) […]
(§3) negative control (Serum Free).
(§4) Supplementary Figure S3: Primary DRG neurons were cultured in the presence of ENT-A013 (500nM, supplemented every 48hrs) and a neutralizing antibody against NGF for 5 days and then neurite length was measured by immunostaining against Tuj1 .
(§5) Supplementary Figure S4: Primary hippocampal neurons at 14-16 DIV were treated with oligomeric Aβ and in the presence of ENT-A013 (500nM, supplemented every 24hrs) for 48hrs and then were subjected to Western Blot against phosphorylated JNK. A representative blot […]

[3] = system: Akt and Erk1/2; assay: Akt and Erk1/2 phosphorylation in NIH-3T3 cells transfected with TrkB or TrkC; details: 500 nM, 30′
Protocol: cells were stably transfected with TrkB and treated with ENT-A013 (500nM) or BDNF (500ng/ml) for 30’ and then subjected to Western Blot against phosphorylated TrkB and […]
either TrkB or Akt by ENT-A013. (C) NIH-3T3 cells were stably transfected with TrkC and (1 picture or pasted object on this page, not shown here) […]
as §1, §2, §3, §4, §5

`CC12CCC(O)CC1=CCC1C2CCC2(C)C1CCC21CC1C=CBr` [ENT-A013, (2′R,3S,17S)-2′-(2-Bromovinyl)-5-Androstene-17,1′-Cyclopropan-3-ol] was tested, and the “increase in APP spot levels compared to DAPT” value (shortened to “increase in APP spot levels”) ([1]; 10 μM) was 166.3%, the “increase in APP spot levels” value ([1]; 30 μM) was 246.4% and the “increase in APP spot levels” value ([1]; 100 μM) was 243.9%. For the same compound, the “increase in APP spot levels” value ([1]; 300 μM) was 239.9%, the pIC50 ([1]; Homo sapiens, U2OS, 100 nM to 300 μM, read-out: IC50 (γ-secretase activity, aggregate formation)) was 4.03 and the “cell death vs negative control (Serum Free) (in words)” value [2] was “no significant difference”. For the same compound, the “Akt phosphorylation (in words)” value ([3]; NIH-3T3 TrkB cells) was “no significant difference in the phosphorylation” and the “Akt and Erk1/2 phosphorylation (in words)” value ([3]; NIH-3T3 TrkC cells) was “failed to”.
